Results published in paper PMC7601999 (Journal of the American Chemical Society, 2020).
Each block holds one compound with its values, some of them ahead of it. Residues, ends and D or L forms follow the SMILES beside them.

Columns and labels:
NOD2 LRR [1] = molecular target: T1, NOD2 LRR (Homo sapiens, UniProt Q9HC29); settings: read-out: Surface KD, NOD2, SPR, previously reported surface KD; cited from earlier work
NLRP1 LRR = molecular target: T2, NLRP1 LRR (Homo sapiens, UniProt Q9C000); assay: SPR assay, NLRP1 LRR binding to surface-tethered PG derivatives; settings: for Decrease in affinity compared to intact MDP (1): NLRP1 LRR, SPR surface KD; for Binding to non-PG derived compound tethered to SPR surface: NLRP1, specificity control (Figure S8)
T2 sequence (Q9C000 791-990): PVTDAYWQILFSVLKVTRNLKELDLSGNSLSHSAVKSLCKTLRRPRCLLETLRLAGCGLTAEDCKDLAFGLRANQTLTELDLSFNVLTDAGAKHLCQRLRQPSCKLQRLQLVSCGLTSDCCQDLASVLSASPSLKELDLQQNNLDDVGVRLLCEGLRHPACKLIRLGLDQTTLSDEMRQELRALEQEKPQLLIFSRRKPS

[2] = system: NOD2 R877 to alanine mutant; settings: R877A versus wild-type NOD2; cited from earlier work
NOD2 LRR [3] = molecular target: T1, NOD2 LRR; assay: SPR assay, NOD2 LRR binding to surface-tethered PG derivatives; settings: specificity control (Figure S8)

T1 sequence (Q9HC29 765-1040 limits assumed): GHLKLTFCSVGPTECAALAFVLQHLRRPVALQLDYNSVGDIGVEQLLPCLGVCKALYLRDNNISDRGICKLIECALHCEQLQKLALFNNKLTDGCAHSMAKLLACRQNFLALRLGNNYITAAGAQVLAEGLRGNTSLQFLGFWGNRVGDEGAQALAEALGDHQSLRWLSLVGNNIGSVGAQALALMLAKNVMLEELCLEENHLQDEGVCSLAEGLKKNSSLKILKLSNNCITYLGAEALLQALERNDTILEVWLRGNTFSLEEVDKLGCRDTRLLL

Compound: 1-amino MDP [Compound 6]
Kd (NOD2 LRR [1]): 700 ± 100 nM

Decrease in affinity compared to intact MDP (1) (NLRP1 LRR): 2 fold
Compound: 6 -amino GlcNAc [Compound 2]
Kd (NOD2 LRR [1]): 354 ± 40 nM

Compound: 6-amino MDP [Compound 1]
Kd (NOD2 LRR [1]): 213 ± 24 nM

Compound: CC(=O)N[C@H]1C(O)O[C@H](CO)[C@@H](O)[C@@H]1O[C@H](C)C(=O)N[C@@H](C)C(=O)N[C@H](CCC(=O)O)C(N)=O (mixture of isomers) [MDP, muramyl dipeptide]
Decrease in affinity of NOD2 for MDP on mutation of R877 to alanine [2]: 4 fold

Decrease in affinity compared to intact MDP (1) (NLRP1 LRR): 2 fold
Compound: C[C@H](N)C(=O)N[C@H](CCC(=O)O)C(N)=O [Compound 3, L-ala D-iso dipeptide] (HELM PEPTIDE1{A.[dE].[am]}$$$$V2.0)
Kd (NOD2 LRR [1]): 428 ± 49 nM

Binding to non-PG derived compound tethered to SPR surface (NLRP1 LRR): did not exhibit binding | Binding to non-PG derived compound tethered to SPR surface (NOD2 LRR [3]): did not exhibit binding
Compound: C[C@H](N)C(=O)N[C@@H](C)C(=O)N[C@@H](C)C(=O)O [L-alanine tripeptide, reference compound]

Binding to non-PG derived compound tethered to SPR surface (NLRP1 LRR): did not exhibit binding | Binding to non-PG derived compound tethered to SPR surface (NOD2 LRR [3]): did not exhibit binding
Compound: N[C@H]1C(O)O[C@H](CO)[C@H](O)[C@@H]1O (some centres unmarked) [galactosamine, reference compound]
